Assay results as given in the NIST ThermoML archive (doi:10.1016/j.jct.2015.07.047).

Details: Liquid, Closed cell (Static) method

Cl[SiH2]Cl [dichlorosilane]
Details	vapor or sublimation pressure [kPa]
313.36 K	290.6
323.35 K	384.1
333.19 K	496.6
343.04 K	631.7
352.98 K	793.4
362.94 K	982.4

Cl[Si](Cl)(Cl)Cl [silicon tetrachloride]
Details	vapor or sublimation pressure [kPa]
318.27 K	66.7
328.25 K	94
338.31 K	129.8
348.08 K	172.9
358.17 K	228.4
368.17 K	295.3

Cl[SiH](Cl)Cl [trichlorosilane]
Details	vapor or sublimation pressure [kPa]
313.34 K	134.1
323.33 K	183.5
333.17 K	245
343 K	321
352.96 K	414.5
362.96 K	528.8
